Series [1] concerns Casp6 (VEID-aminoluciferin cleavage). More on the design: method as in PMID 25616965. As to conditions: read-out: inhibition of cleavage of VEID-aminoluciferin; cited from earlier work.
The subject of another series is Caspase-5. Further details: method as in PMID 25616965. The settings on record: cited from earlier work.
For series [2], the system named is Casp6 (mutant huntingtin cleavage). Further details: method as in PMID 25616965. The settings on record: read-out: IC50 against mutant huntingtin cleavage (FRET); cited from earlier work.
A further series has as its system Caspase-3. More on the design: method as in PMID 9092497. As to conditions: read-out: Michaelis-Menten constant (Km) for Caspase-3; cited from earlier work.
The subject of another series is recombinant Casp6. Further details: method as in PMID 9092497. As to conditions: read-out: Michaelis-Menten constant (Km) for recombinant Casp6; cited from earlier work.
In series [3] the test system is APPWT-transfected primary human CNS neurons. The series can be described thus: Neuritic beading/degeneration in APPWT-transfected primary human neurons. The settings on record: NWL 100 μM, Z-VEID-fmk 5 μM. Type of series: cell-based. On the procedure:
Immunofluorescence on human neuron cultures: Primary human neurons were pre-treated 2 h and serum-deprived in the presence of 100 μM NWL-117, 100 μM NWL-154, or 5 μM Z-VEID-fmk (Biomol, Plymouth meeting, PA, USA) for 24 h. Following treatment, human neurons were washed once with warm PBS, fixed for 20 min at room temperature with 4% paraformaldehyde (Sigma, Oakville, ON, CA)/4% sucrose (BioRad, Mississauga, ON, CA) for TubΔCasp6 or 2% formaldehyde (Thermo Fisher Scientific, Waltham, MA, USA)/0.2% glutaraldehyde (Sigma, Oakville, ON, CA) for pBudEGFP or pBudEGFP/APP^WT-transfected neurons, incubated in permeabilization buffer (0.1% Triton X-100, 0.1 sodium citrate) for 1 min on ice, washed with PBS, blocked for 20 min at room temperature with 10% goat serum (Sigma, Oakville, ON, CA), and incubated with primary antibodies diluted in 10% goat serum in PBS overnight at 4 °C in a humid chamber. The glass coverslips were washed with PBS, and incubated with goat anti-rabbit secondary antibody coupled to Alexa 488 (Molecular Probes, Eugene, OR, USA) or Cy3 (GE Healthcare Life Sciences, Baie D’Urfe, QC, CA) and Hoechst 33342 (ImmunoChemistry, Bloomington, MN, USA) at 1 μg/mL for 2 h at room temperature. The coverslips were washed with PBS and rinsed in Milli-Q water before mounting in fluoromount (Dako, Burlington, ON, CA). Images were acquired by fluorescence microscopy and quantified using the ImageJ software (NIH, Bethesda, MD, USA) for TubΔCasp6 and manually counted for transfected EGFP(+)-neurons. Time lapse-imaging by live fluorescence microscopy: Primary human neurons were transfected with gold beads coated with pBudEGFP or pBudEGFP/APP^WT using a Helios Gene gun (BioRad, Mississauga, ON, CA). Briefly, cells were pre-treated with 100 μM NWL inhibitors or 5 μM Z-VEID-fmk for 2 h. The media was removed and the neurons were shot at 100 psi. The media was quickly replaced with the inhibitors present. The plasmid was expressed for 16 h before setting up the fluorescence microscope (Nikon Eclipse Ti) to acquire 20 images per condition every hour for 72 h at 37 °C with 5% CO2. The images were analyzed by counting the total number of neurons (50–100 neurons per condition per independent experiment), and the number of beaded, swollen soma, and healthy neurons. In addition, the time at which cells beaded was noted. Phase contrast microscopy: HCT116 cells, plated at a density of 1×10^5 cells/well and human neurons, plated at a density of 6×10^6 cells/well on poly-L-lysine were treated with PBS, 100 μM NWL-117, 100 μM NWL-154, or 2 μM staurosporine (Biomol, Plymouth meeting, PA, USA) for 24 h. Images were acquired with the Nikon Eclipse Ti microscope and the NIS-Elements (Version 3.10) software.

In another series the test system is mammals. As to conditions: fmk moiety metabolized into fluorocitrate; cited from earlier work.

The text below walks through data of publication PMC5329948, “Caspase vinyl sulfone small molecule inhibitors prevent axonal degeneration in human neurons and reverse cognitive impairment in Caspase-6-overexpressing mice” (Molecular Neurodegeneration, 2017).

Some results are limits rather than exact numbers.

On to “ED11: 24 amino acid peptide (GRKKRRQRRRPPQSSEIVLDGTDN) containing HIV TAT-peptide and huntingtin sequences; Casp6 inhibitor”, for which the figures for the IC50 in series [1] and in series [2] were above 10000 nM and 12.1 nM, respectively. Further, the “Caspase-5 activity on the FRET assay” value with Caspase-5 is “significant enhancement”.

On to “VEID: Val-Glu-Ile-Asp peptide substrate sequence preferred by Casp6 (printed: Val-Glu-Ile-Asp)”, for which the results for the Km in the series on Caspase-3 and in the series with recombinant Casp6 were 250 µM and 30 µM, respectively.

On to “benzyloxycarbonyl-Val-Glu-Ile-Asp-fmk [Z-VEID-fmk, reference compound]”, for which the neuritic beading entry in series [3] (APPWT/EGFP co-expression, 48 h) is on record as “prevented neuritic beading”. Moreover, the “percentage of beaded neurons, fold of EGFP-alone” value in series [3] (live imaging 72 h, APPWT vehicle 1.52, EGFP-alone 1.00, mean ± SEM) amounted to 0.97 fold. Further, the toxicity to mammals entry with mammals is recorded as “toxic to mammals”.
